Data reported in patent US11000033B2, “Ketone or oxime compound, and herbicide” (NISSAN CHEMICAL CORPORATION, priority 2014, dated 2021).

Assays:
Format in all cases: in vivo
Avena fatua = test: Test Example 4: herbicidal effect by soil treatment (symbol I); settings: for I (Avena fatua) herbicidal effect grade: application herbicide amount 320 g/ha
In short: (§1)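 Seeds were sown in sterilized diluvial soil, covered with about 1.5 cm of soil, and the soil surface was sprayed with a water-diluted emulsion of the compound at a predetermined rate. Plants grew in a greenhouse at 25° C. to 30° C.; effects were scored visually 3 weeks after application.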

beet [1] = test: Test Example 5: effect on crop by foliage application, plastic box (symbol f); settings: 320 g/ha, 3 weeks after application
In short: (§2)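 In a plastic box 7 cm deep filled with sterilized diluvial soil, seeds of crops and weeds such as Digitaria ciliaris, Avena fatua and Amaranthus retroflexus are sown in spots and covered with about 1.5 cm of soil before greenhouse growth at 25–30° C.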

[2] = test system: Echinochloa crus-galli var. crus-galli; test: Test Example 3: herbicidal effect by foliage application, Wagner pot (symbol H); settings: application herbicide amount 320 g/ha
In short: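 Steps: fill pot with alluvial soil; add water to 0.1–0.5 cm depth; sow weed and rice seed; grow 14 days at 25–30 °C; spray diluted emulsion over the leaves; rate effect after 3 weeks.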

Digitaria ciliaris [3] = test: Test Example 5: herbicidal effect by foliage application, plastic box (symbol F); settings: 320 g/ha, 3 weeks after application
In short: (§3)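 Effect is rated 3 weeks after a foliar spray of water-diluted emulsion concentrate at a predetermined herbicide amount. Plants had grown 14 days in a 25° C. to 30° C. greenhouse from seed in sterilized diluvial soil.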

Amaranthus retroflexus = test: Test Example 5: herbicidal effect by foliage application, plastic box (symbol N); settings: 320 g/ha, 3 weeks after application
In short: as §3

rice plant = test: Test Example 5: effect on crop by foliage application, plastic box (symbol b); settings: 320 g/ha, 3 weeks after application
In short: as §2

Alopecurus myosuroides = test: Test Example 4: herbicidal effect by soil treatment (symbol J); settings: for J (Alopecurus myosuroides) herbicidal effect grade: application herbicide amount 320 g/ha
In short: as §1

Apera spica-venti = test: Test Example 5: herbicidal effect by foliage application, plastic box (symbol L); settings: 320 g/ha, 3 weeks after application
In short: as §3

[4] = test system: Echinochloa oryzacola Vasing.; test: Test Example 2: herbicidal activity, application during weed generation in submerged conditions (symbol A); settings: Table 23; application herbicide amount 320 g/ha; grade 0-5 by criteria of Test Example 1
In short: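 Submerged alluvial soil (4 cm) sown with mixed seed; greenhouse 25–30° C. 1–2 leaf: diluted emulsion onto water surface, preset dose. Visual score, 3 wk.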

Abutilon theophrasti [5] = test: Test Example 5: herbicidal effect by foliage application, plastic box (symbol M); settings: 320 g/ha, 3 weeks after application
In short: as §3

Veronica persica [6] = test: Test Example 4: herbicidal effect by soil treatment (symbol R); settings: for R (Veronica persica) herbicidal effect grade: application herbicide amount 320 g/ha
In short: as §1

soybean = test: Test Example 5: effect on crop by foliage application, plastic box (symbol d); settings: 320 g/ha, 3 weeks after application
In short: as §2

Digitaria ciliaris [7] = test: Test Example 4: herbicidal effect by soil treatment (symbol F); settings: for F (Digitaria ciliaris) herbicidal effect grade: application herbicide amount 320 g/ha
In short: as §1

beet [8] = test: Test Example 4: effect on crop by soil treatment (symbol f); settings: for f (beet) effect on crop grade: application herbicide amount 320 g/ha
In short: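 Crop seeds, among them rice, wheat, beet and rapeseed, were sown in sterilized diluvial soil and covered with about 1.5 cm of soil. Boxes were kept in a greenhouse at 25° C. to 30° C. for plant growth.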

Veronica persica [9] = test: Test Example 5: herbicidal effect by foliage application, plastic box (symbol R); settings: 320 g/ha, 3 weeks after application
In short: as §3

Abutilon theophrasti [10] = test: Test Example 4: herbicidal effect by soil treatment (symbol M); settings: for M (Abutilon theophrasti) herbicidal effect grade: application herbicide amount 320 g/ha
In short: as §1

Row | SMILES | I (Avena fatua) herbicidal effect grade (Avena fatua) | f: beet, effect on crop grade (beet [1]) | herbicidal effect on H (Echinochloa crus-galli var. crus-galli), grade 0-5 [2] | F: Digitaria ciliaris, herbicidal effect grade (Digitaria ciliaris [3]) | N: Amaranthus retroflexus, herbicidal effect grade (Amaranthus retroflexus) | b: directly sowed rice plant, effect on crop grade (rice plant) | J (Alopecurus myosuroides) herbicidal effect grade (Alopecurus myosuroides) | L: Apera spica-venti, herbicidal effect grade (Apera spica-venti) | Herbicidal effect grade, A: Echinochloa oryzacola Vasing. [4] | M: Abutilon theophrasti, herbicidal effect grade (Abutilon theophrasti [5]) | R (Veronica persica) herbicidal effect grade (Veronica persica [6]) | d: soybean, effect on crop grade (soybean) | F (Digitaria ciliaris) herbicidal effect grade (Digitaria ciliaris [7]) | f (beet) effect on crop grade (beet [8]) | R: Veronica persica, herbicidal effect grade (Veronica persica [9]) | M (Abutilon theophrasti) herbicidal effect grade (Abutilon theophrasti [10]) | also measured
1 | CON=C(C)CC1CC(OC(=O)COc2ccc(OC)cc2)=C(c2c(C)cc(C)cc2C)C1=O (stereo not shown) [1-069] | 3 (Herbicidal ratio of 40% or higher and lower than 70%) | 1 (Herbicidal ratio of 5% or higher and lower than 20%) | 5 (Herbicidal ratio of 90% or more (almost completely withered)) | 5 (Herbicidal ratio of 90% or more (almost completely withered)) | 5 (Herbicidal ratio of 90% or more (almost completely withered)) | 5 (Herbicidal ratio of 90% or more (almost completely withered)) | 5 (Herbicidal ratio of 90% or more (almost completely withered)) | 5 (Herbicidal ratio of 90% or more (almost completely withered)) | 4 (Herbicidal ratio of 70% or higher and lower than 90%) | 5 (Herbicidal ratio of 90% or more (almost completely withered)) | 0 (Herbicidal ratio of 5% or lower (almost no effect)) | 4 (Herbicidal ratio of 70% or higher and lower than 90%) | 5 (Herbicidal ratio of 90% or more (almost completely withered)) | 0 (Herbicidal ratio of 5% or lower (almost no effect)) | 3 (Herbicidal ratio of 40% or higher and lower than 70%) | 4 (Herbicidal ratio of 70% or higher and lower than 90%) | 
2 | CON=C(CC1CC1)CC1CC(O)=C(c2c(C)cc(C)cc2C)C1=O (stereo not shown) [1-070] | 0 (Herbicidal ratio of 5% or lower (almost no effect)) | 0 (Herbicidal ratio of 5% or lower (almost no effect)) | 5 (Herbicidal ratio of 90% or more (almost completely withered)) | 1 (Herbicidal ratio of 5% or higher and lower than 20%) | 0 (Herbicidal ratio of 5% or lower (almost no effect)) | 5 (Herbicidal ratio of 90% or more (almost completely withered)) | 5 (Herbicidal ratio of 90% or more (almost completely withered)) | 4 (Herbicidal ratio of 70% or higher and lower than 90%) | 4 (Herbicidal ratio of 70% or higher and lower than 90%) | 0 (Herbicidal ratio of 5% or lower (almost no effect)) | 0 (Herbicidal ratio of 5% or lower (almost no effect)) | 0 (Herbicidal ratio of 5% or lower (almost no effect)) | 4 (Herbicidal ratio of 70% or higher and lower than 90%) | 0 (Herbicidal ratio of 5% or lower (almost no effect)) | 2 (Herbicidal ratio of 20% or higher and lower than 40%) | 0 (Herbicidal ratio of 5% or lower (almost no effect)) | 
3 | CON=C(C)CC1CC(OC(=O)COc2ccc(C)cc2)=C(c2c(C)cc(C)cc2C)C1=O (stereo not shown) [1-072] | 4 (Herbicidal ratio of 70% or higher and lower than 90%) | 1 (Herbicidal ratio of 5% or higher and lower than 20%) | 4 (Herbicidal ratio of 70% or higher and lower than 90%) | 5 (Herbicidal ratio of 90% or more (almost completely withered)) | 5 (Herbicidal ratio of 90% or more (almost completely withered)) | 5 (Herbicidal ratio of 90% or more (almost completely withered)) | 5 (Herbicidal ratio of 90% or more (almost completely withered)) | 5 (Herbicidal ratio of 90% or more (almost completely withered)) | 5 (Herbicidal ratio of 90% or more (almost completely withered)) | 5 (Herbicidal ratio of 90% or more (almost completely withered)) | 0 (Herbicidal ratio of 5% or lower (almost no effect)) | 2 (Herbicidal ratio of 20% or higher and lower than 40%) | 5 (Herbicidal ratio of 90% or more (almost completely withered)) | 0 (Herbicidal ratio of 5% or lower (almost no effect)) | 3 (Herbicidal ratio of 40% or higher and lower than 70%) | 4 (Herbicidal ratio of 70% or higher and lower than 90%) | 
4 | CON=C(CC1CC(O)=C(c2c(C)cc(C)cc2C)C1=O)C1CCCC1 (stereo not shown) [1-078] |  |  | 5 (Herbicidal ratio of 90% or more (almost completely withered)) |  |  |  |  |  | 4 (Herbicidal ratio of 70% or higher and lower than 90%) |  |  |  |  |  |  |  | I: Avena fatua, herbicidal effect grade (Avena fatua; 320 g/ha): 0 (Herbicidal ratio of 5% or lower (almost no effect)); f: beet, effect on crop (criteria 0-5) (beet [1]): 0 (Herbicidal ratio of 5% or lower (almost no effect)); F: Digitaria ciliaris, herbicidal effect (criteria 0-5) (Digitaria ciliaris [3]): 1 (Herbicidal ratio of 5% or higher and lower than 20%); N: Amaranthus retroflexus, herbicidal effect (criteria 0-5) (Amaranthus retroflexus): 0 (Herbicidal ratio of 5% or lower (almost no effect)); b: directly sowed rice plant, effect on crop (criteria 0-5) (rice plant): 5 (Herbicidal ratio of 90% or more (almost completely withered)); J: Alopecurus myosuroides, herbicidal effect grade (Alopecurus myosuroides; 320 g/ha): 3 (Herbicidal ratio of 40% or higher and lower than 70%); L: Apera spica-venti, herbicidal effect (criteria 0-5) (Apera spica-venti): 3 (Herbicidal ratio of 40% or higher and lower than 70%); M: Abutilon theophrasti, herbicidal effect (criteria 0-5) (Abutilon theophrasti [5]): 0 (Herbicidal ratio of 5% or lower (almost no effect)); R: Veronica persica, herbicidal effect grade (Veronica persica [6]; 320 g/ha): 0 (Herbicidal ratio of 5% or lower (almost no effect)); d: soybean, effect on crop (criteria 0-5) (soybean): 0 (Herbicidal ratio of 5% or lower (almost no effect)); F: Digitaria ciliaris, herbicidal effect grade (Digitaria ciliaris [7]; 320 g/ha): 5 (Herbicidal ratio of 90% or more (almost completely withered)); f: beet, effect grade on crop (beet [8]; 320 g/ha): 0 (Herbicidal ratio of 5% or lower (almost no effect)); R: Veronica persica, herbicidal effect (criteria 0-5) (Veronica persica [9]): 0 (Herbicidal ratio of 5% or lower (almost no effect)); M: Abutilon theophrasti, herbicidal effect grade (Abutilon theophrasti [10]; 320 g/ha): 0 (Herbicidal ratio of 5% or lower (almost no effect))
